Results on nine compounds are retold here after patent US10899751B2, “Compounds, compositions, and methods for increasing CFTR activity” (Proteostasis Therapeutics, Inc., priority 2016, dated 2021).

For orientation: EC50 means the concentration giving half of the maximal effect.

The target in this experiment is T1, ΔF508-CFTR (Homo sapiens, UniProt P13569, DEL508-508).
T1 construct: Primary lung epithelial cells homozygous for the Cystic Fibrosis-causing ΔF508 mutation were differentiated for a minimum of 4 weeks; endogenous in cells; host or cells: primary lung (bronchial) epithelial cells (hBE) homozygous for ΔF508, differentiated at an air-liquid interface
T1 sequence (P13569 with tags, fused parts or gaps DEL508-508): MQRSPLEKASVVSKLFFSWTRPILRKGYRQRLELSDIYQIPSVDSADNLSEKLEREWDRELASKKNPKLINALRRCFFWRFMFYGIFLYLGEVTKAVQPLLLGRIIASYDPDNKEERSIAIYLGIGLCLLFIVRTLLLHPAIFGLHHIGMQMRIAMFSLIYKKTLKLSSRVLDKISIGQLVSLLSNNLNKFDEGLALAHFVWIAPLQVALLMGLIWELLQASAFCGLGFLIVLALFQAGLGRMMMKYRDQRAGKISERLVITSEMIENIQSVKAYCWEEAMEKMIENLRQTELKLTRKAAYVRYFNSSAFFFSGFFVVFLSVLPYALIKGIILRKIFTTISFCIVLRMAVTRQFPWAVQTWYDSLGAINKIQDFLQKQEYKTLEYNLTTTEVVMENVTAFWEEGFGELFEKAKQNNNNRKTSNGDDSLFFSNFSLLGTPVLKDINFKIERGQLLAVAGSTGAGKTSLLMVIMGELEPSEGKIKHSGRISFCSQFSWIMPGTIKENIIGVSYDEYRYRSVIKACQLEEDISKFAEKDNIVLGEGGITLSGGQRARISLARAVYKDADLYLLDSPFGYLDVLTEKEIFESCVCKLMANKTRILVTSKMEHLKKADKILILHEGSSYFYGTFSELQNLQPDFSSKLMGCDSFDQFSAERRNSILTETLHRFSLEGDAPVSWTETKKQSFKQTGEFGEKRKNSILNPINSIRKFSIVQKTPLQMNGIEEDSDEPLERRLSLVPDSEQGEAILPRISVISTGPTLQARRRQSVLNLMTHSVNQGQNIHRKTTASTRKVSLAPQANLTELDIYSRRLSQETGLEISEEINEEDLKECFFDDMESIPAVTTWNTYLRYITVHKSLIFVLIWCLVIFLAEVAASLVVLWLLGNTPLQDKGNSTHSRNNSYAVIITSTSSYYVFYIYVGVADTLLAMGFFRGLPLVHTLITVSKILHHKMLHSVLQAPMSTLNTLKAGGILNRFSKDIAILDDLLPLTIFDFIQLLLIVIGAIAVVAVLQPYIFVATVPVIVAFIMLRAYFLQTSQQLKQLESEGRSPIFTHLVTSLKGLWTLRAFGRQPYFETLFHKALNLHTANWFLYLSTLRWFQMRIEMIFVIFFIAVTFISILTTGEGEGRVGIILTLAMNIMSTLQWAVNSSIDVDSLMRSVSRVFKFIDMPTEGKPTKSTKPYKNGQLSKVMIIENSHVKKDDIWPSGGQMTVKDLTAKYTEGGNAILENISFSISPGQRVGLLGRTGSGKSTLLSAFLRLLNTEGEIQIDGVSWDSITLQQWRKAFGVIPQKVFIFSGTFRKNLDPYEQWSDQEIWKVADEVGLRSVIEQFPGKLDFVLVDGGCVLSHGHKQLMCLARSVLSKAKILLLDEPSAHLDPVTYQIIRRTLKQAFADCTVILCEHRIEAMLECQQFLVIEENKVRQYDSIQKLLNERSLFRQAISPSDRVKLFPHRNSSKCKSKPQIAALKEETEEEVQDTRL
As to the kind of experiment: hBE equivalent current (Ieq) assay. It is filed as cell-based. The settings on record: primary lung epithelial cells homozygous for ΔF508, 24 h treatment; for Ieq Activity: compound at its EC50 and VX-809 at 3 uM; for EC50: AUC of equivalent chloride current after forskolin plus VX-770. On the procedure: Primary lung epithelial cells homozygous for the Cystic Fibrosis-causing ΔF508 mutation were differentiated for a minimum of 4 weeks in an air-liquid interface on Costar 24 well HTS filter plates prior to the equivalent current (Ieq) measurements. Cells were apically mucus-washed for 30 minutes 24 h prior to treatment with compounds. The basolateral media was removed and replaced with media containing the compound of interest diluted to its final concentration from DMSO stocks. Treated cells were incubated at 37° C. and 5% CO2 for 24 hours. At the end of the treatment period, the media was changed to the Ieq experimental solution for 30 minutes before the experiment and plates are maintained in a CO2-free incubator during this period. The plates containing the cells were then placed in pre-warmed heating blocks at 36° C.±0.5 for 15 minutes before measurements are taken. The transepithelial voltage (VT) and conductance (GT) were measured using a custom 24 channel current clamp (TECC-24) with 24 well electrode manifold. The Ieq assay measurements were made following additions with standardized time periods: • 1. The baseline VT and GT values were measured for approximately 20 minutes. • 2. Benzamil was added to block ENaC for 15 minutes. • 3. Forskolin plus VX-770 were added to maximally activate ΔF508-CFTR for 27 minutes. • 4. Bumetanide was added to inhibit the NaK2Cl cotransporter and shut-off secretion of chloride.
The activity data captured was the area under the curve (AUC) for the traces of the equivalent chloride current. The AUC was collected from the time of the forskolin/VX-770 addition until the inhibition by bumetanide addition. Correction in response to compound treatment was scored as the increase in the AUC for compound-treated samples over that of vehicle-treated samples.
(** indicates activity ≥200% of VX-809 (3 uM) with compound at its EC50 and VX-809 at 3 uM; * indicates activity 100-200% of VX-809 (3 uM) with compound at its EC50 and VX-809 at 3 uM. ##indicates activity <100% of VX-809 (3 uM) with compound at its EC50 and VX-809 at 3 uM. In Table 2, an Ieq EC50 value of “A” indicates the compound's EC50 is ≤1 μM; an Ieq EC50 value of “B” indicates the compound's EC50 is between 1 and 10 μM; an Ieq EC50 value of “C” indicates the compound's EC50 is ≥10 μM.

Turning to `CN1CCN(C(=O)CCCNC(=O)c2cc(-c3ccc(F)cc3)on2)CC1` [Example 10], the “Ieq Activity” value was “## (##indicates activity <100% of VX-809 (3 uM) with compound at its EC50 and VX-809 at 3 uM)”; the EC50 is at most 1 µM.
As for `O=C(NCCCC(=O)N1CCC1)c1cc(-c2ccc(F)cc2)on1` [Example 1, N-(4-(Azetidin-1-yl)-4-oxobutyl)-5-(4-fluorophenyl)isoxazole-3-carboxamide], the “Ieq Activity” value is “** (** indicates activity ≥200% of VX-809 (3 uM) with compound at its EC50 and VX-809 at 3 uM)”; the EC50 is at most 1 µM.
Consider `O=C(N[C@H]1C[C@H](C(=O)N2CCC2)C1)c1cc(-c2ccccc2)no1` [Example 4, N-((1r,3r)-3-(Azetidine-1-carbonyl)cyclobutyl)-3-phenylisoxazole-5-carboxamide], for which the “Ieq Activity” value is “** (** indicates activity ≥200% of VX-809 (3 uM) with compound at its EC50 and VX-809 at 3 uM)”; the concentration for a half-maximal effect (EC50) lay within 1 to 10 µM.
On to `O=C(NCCCC(=O)N1CCC1)c1cc(-c2ccccc2)no1` [Example 3, N-(4-(Azetidin-1-yl)-4-oxobutyl)-3-phenylisoxazole-5-carboxamide], for which the “Ieq Activity” value was “* (* indicates activity 100-200% of VX-809 (3 uM) with compound at its EC50 and VX-809 at 3 uM)”; the EC50 fell in the range of 1 to 10 µM.
On to `CN1CCN(C(=O)CCCCNC(=O)c2cc(-c3ccccc3)on2)CC1` [Example 11], for which the “Ieq Activity” value was “## (##indicates activity <100% of VX-809 (3 uM) with compound at its EC50 and VX-809 at 3 uM)”; the EC50 was at most 1 µM.
Consider `O=C(NCCC(=O)N1CCC1)c1cc(-c2ccccc2)on1` [Example 12], for which the “Ieq Activity” value was “* (* indicates activity 100-200% of VX-809 (3 uM) with compound at its EC50 and VX-809 at 3 uM)”; the EC50 is at most 1 µM.
With `O=C(N[C@H]1C[C@H](C(=O)N2CCC2)C1)c1cc(-c2ccc(F)cc2)on1` [Example 6], the “Ieq Activity” value is “* (* indicates activity 100-200% of VX-809 (3 uM) with compound at its EC50 and VX-809 at 3 uM)”; the EC50 was at most 1 µM.
For the compound `O=C(N[C@H]1C[C@H](C(=O)N2CCC2)C1)c1cc(-c2ccccc2)on1` [Example 2, N-((1r,3r)-3-(Azetidine-1-carbonyl)cyclobutyl)-5-phenylisoxazole-3-carboxamide], the “Ieq Activity” value was “** (** indicates activity ≥200% of VX-809 (3 uM) with compound at its EC50 and VX-809 at 3 uM)”; the EC50 was at most 1 µM.
As to `O=C(NCCCCC(=O)N1CCC1)c1cc(-c2ccccc2)on1` [Example 8], the “Ieq Activity” value is “## (##indicates activity <100% of VX-809 (3 uM) with compound at its EC50 and VX-809 at 3 uM)”; the EC50 is at most 1 µM.
